Results published in patent US20030013690A1, “Increasing phosphorus uptake from the gut of dairy cows by supplementing 1alpha-hydroxylated vitamin D compounds” (priority 2001, published 2003).

Columns and labels:
Format in all cases: in vivo
[1] = test system: lactating dairy cows; test: Dairy cow efficacy trial: milk yield and milk composition
Description: (§1) Eight multiparous lactating dairy cows (about 150 days in milk at start of the experiment) were blocked into two groups according to milk yield. Cows in each block were assigned randomly to four different treatments. The experimental design was a 4×4 Latin Square. Each period was four weeks in length. The first three weeks were used as an adaptation period, and measurements were taken during the last week of each period.
(§2) The four treatments were:
(§3) 1) High P diet. Dietary P at 0.47% (DM basis)
(§4) 2) Diet 1 plus 1-α-OHD3 (75 μg/cow/day)
(§5) 3) Low P diet. Dietary P at 0.35% (DM basis)
(§6) 4) Diet 3 plus 1-α-OHD3 (75 μg/cow/day).
(§7) Cows were weighed two days in a row before the trial started and two days in a row when it finished. Daily milk weights were recorded. All cows were injected with bovine somatotropin (Posilac®). Blood samples were collected on the last day of weeks 1, 2, and 3 of each period. During week 4, blood samples were obtained on each of the last three days. Blood was obtained 5 hours after feeding from the coccygeal vein or artery in a gel and clot co-activator vacutainer. Samples were centrifuged the next day to separate the serum. Inorganic phosphorus and calcium analyses were performed on serum samples by Marshfield Laboratories, Marshfield, Wis.
(§8) During the last two days of each period, six urine samples were collected at 8 am, 4 pm, and 11 pm on the first day and 12 noon, 8 pm, and 6 am on the second day. Urine samples were then composited for phosphorus, calcium, and creatinine analysis. Creatinine was measured to enable an estimate of urine output. Milk samples were obtained during four days of each period. The milk sample was split; one-half was mixed with a preservative, and the other half was refrigerated without a preservative. The samples with preservative were analyzed for milk composition by Wisconsin Ag Source Milk Analysis Laboratory (Menomonie, Wis.), and the samples without preservative were composited according to milk yield and analyzed for mineral composition in the Soil and Plant Analysis Laboratory, Department of Soil Science, University of Wisconsin-Madison.

[2] = test system: lactating dairy cows; test: Dairy cow efficacy trial: feed intake, fecal P excretion, P utilization
Description: as §1, §2, §3, §4, §5, §6
The diets (Table 1) were fed ad libitum as a total mixed ration once daily. The cows were housed in individual tie stalls. Daily feed offered and refused was recorded for individual cows. Feed refusals were restricted to 10% of intake on an as-fed basis. Daily samples of silage and refusals were composited weekly for chemical analysis. Samples of individual feed ingredients were collected once weekly. The dry matter content of feed ingredients was determined by oven drying at 60° C. for 48 hr. Diet formulations were adjusted weekly, if necessary, to account for changes in dry matter content of diet ingredients. All of the feed ingredients were analyzed for chemical composition. Alfalfa and corn silage were analyzed weekly for neutral detergent fiber (NDF), acid detergent fiber (ADF), and crude protein (CP). High moisture ear corn (HMEC), soybean meal (SBM), roasted soybean meal (RSB), and blood meal (BM) were composited every four weeks (one sample per period) and analyzed for CP.
Feed DM digestibility was determined using Yb as an external marker. A Yb solution, prepared by dissolving 2.24 g of YbCl3 (1 g of Yb) in 30 ml of water was sprayed onto 500 g of alfalfa silage (DM basis). The Yb-marked alfalfa silage was mixed into the total mixed ration to give 40 mg of Yb/kg of dietary DM. The total mixed ration labeled with Yb was fed for nine days. During the last two days of Yb feeding (last two days of each period), eight fecal grab samples were collected from each cow at 7 am, 12 noon, 6 pm, and 11 pm on the first day and at 9 am, 3 pm, 9 pm, and 5 am on the second day. Fecal samples were dried at 60° C. for 72 h and ground through a 2-mm Wiley mill screen. Fecal samples were dry-ashed in duplicate (Combs and Satter, 1992). During the last four days of each period, feed refusals for each cow were collected and composited into one sample per cow per period. These samples were dry-ashed in the same way as feces, and analyzed for Yb. Concentrations of Yb (ppm) in feed, feed refusals, and fecal samples were determined by direct current plasma spectroscopy [(Combs and Satter, 1992); Spectra Metrics, Inc., subsidiary of Beckman Instruments, Inc., Andover, Mass.]. The DM digestibility (percentage) for individual cows was calculated as follows: DM digestibility (%)=(1-concentration of Yb in DM consumed/average concentration of Yb in each cow's fecal samples)100. Digestibility of dietary P in different treatments was calculated using P input-output data.

[3] = test system: lactating dairy cows; test: Dairy cow efficacy trial: P and Ca concentrations in urine
Description: as §1, §2, §3, §4, §5, §6, §8

[4] = test system: lactating dairy cows; test: Dairy cow efficacy trial: P and Ca concentrations in blood serum
Description: as §1, §2, §3, §4, §5, §6, §7

[5] = treatment 2: high P diet (0.47% P) plus 75 μg/cow/day
[6] = treatment 4: low P diet (0.35% P) plus 75 μg/cow/day
[7] = both the high- and low-P treatments, highly significant

For `C=C1/C(=C\C=C2/CCC[C@]3(C)[C@@H]([C@H](C)CCCC(C)C)CC[C@@H]23)C[C@@H](O)C[C@@H]1O` [1-α-OHD3, 1α-hydroxyvitamin D3], the “Effect on milk production” value ([1]; supplementation of 75 μg) was “unaffected”, the Milk yield [1, 5] was 36.9 kg/day and the Milk yield [1, 6] was 37.6 kg/day. The “Reduction in fecal P excretion due to supplementation” value ([2]; 75 μg/cow/day) was 14%, the “Reduction of phosphorus excretion in manure” value ([2]; both the high- and low-P treatments, 75 μg/cow/day) was “about 10 g per day” and the “Effect on fecal P excretion” value ([2]; daily inclusion of 75 μg in the cows' diets) was “reduced”. For the same compound, the “Effect on P uptake from the gut” value ([2]; evidenced by decreased fecal P and increased serum P) was “increased”, the “Fecal DM P” value [2, 5] was 0.99% and the “Fecal P” value [2, 5] was 71.3 g/day. For the same compound, the “Milk and Fecal P” value [2, 5] was 109.5 g/day, the “Fecal DM P” value [2, 6] was 0.77% and the “Fecal P” value [2, 6] was 55.4 g/day. For the same compound, the “Milk and Fecal P” value [2, 6] was 93.8 g/day, the “Effect on calcium excretion via urine” value ([3]; 75 μg/cow/day) was “increased” and the “Urinary P as share of dietary P intake” value ([3]; high-P treatment, at 5.15 mg P per dl of urine) was “about 2%”. The Urine calcium [3, 5] was 12.03 mg/dL, the Urine phosphorus [3, 5] was 5.15 mg/dL and the Urine calcium [3, 6] was 15.46 mg/dL. The Urine phosphorus [3, 6] was 0.40 mg/dL, the “Effect on concentration of Ca in blood serum” value [4, 7] was “increase” and the “Effect on concentration of P in blood serum” value [4, 7] was “increase”. For the same compound, the Blood serum calcium [4, 5] was 10.32 mg/dL, the Blood serum phosphorus [4, 5] was 8.77 mg/dL and the Blood serum calcium [4, 6] was 10.14 mg/dL. It also gave a Blood serum phosphorus [4, 6] of 7.63 mg/dL.
